Assay results from US20230151014A1 (Repare Therapeutics Inc., priority 2020, published 2023).

Target: T1, recombinant human Myt1 (Homo sapiens, UniProt Q99640)
T1 construct: full length PKMYT1 recombinant human protein expressed in insect cells
T1 sequence (Q99640 1-499): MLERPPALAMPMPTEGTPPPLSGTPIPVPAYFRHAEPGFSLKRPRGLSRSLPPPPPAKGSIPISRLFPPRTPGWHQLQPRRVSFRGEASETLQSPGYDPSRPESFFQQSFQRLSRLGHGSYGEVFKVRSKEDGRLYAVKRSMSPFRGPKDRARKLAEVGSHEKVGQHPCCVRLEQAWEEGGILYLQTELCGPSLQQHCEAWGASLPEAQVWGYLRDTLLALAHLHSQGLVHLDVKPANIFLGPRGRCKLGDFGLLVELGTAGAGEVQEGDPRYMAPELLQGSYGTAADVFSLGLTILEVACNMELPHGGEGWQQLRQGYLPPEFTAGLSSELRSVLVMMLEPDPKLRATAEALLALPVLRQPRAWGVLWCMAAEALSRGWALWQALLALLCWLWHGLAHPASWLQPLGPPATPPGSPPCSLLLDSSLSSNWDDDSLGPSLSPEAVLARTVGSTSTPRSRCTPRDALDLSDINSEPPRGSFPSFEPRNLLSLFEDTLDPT
Test: Myt1 enzymatic assay (ADP-Glo kinase assay, IC50 and % max inhibition)
Assay type: biochemical
Conditions: recombinant human Myt1 18 nM, ATP 10 μM
Method: Detection of Myt1 kinase activity utilized a recombinant human Myt1 kinase assay measuring the hydrolysis of ATP using a commercially available ADP-Glo Assay (ADP-Glo™ Kinase Assay from Promega, 10 000 assays, #V9102). […] After this, 5 μL of compounds (diluted in reaction buffer to 0.5% DMSO) was added to the microplate and the plate was spun briefly and incubated at 22° C. for 15 minutes. Ultra-Pure Adenosine Triphosphate (ATP) solution (ADP-Glo kit from Promega) was diluted in reaction buffer and 5 μL was added to the microplate, spun down briefly and incubated for 60 minutes at 30° C. […] After the 60-minute incubation, 15 μL of ADP-Glo reagent was added and the plate was spun briefly and sealed and incubated in the dark for 40 minutes at 22° C. […] Luminescence was read using the Envision (250 ms integration). The IC50 and the % max inhibition were calculated for each inhibitor compound tested.

Structure (SMILES) | IC50 [nM]
C=Cc1nc2c(C(N)=O)c(N)n(-c3c(C)ccc(O)c3C)c2nc1C(F)(F)F [Compound 102, 6-amino-5-(3-hydroxy-2,6-dimethyl-phenyl)-3-(trifluoromethyl)-2-vinyl-pyrrolo[2,3-b]pyrazine-7-carboxamide] | 13
Cc1ccc(O)c(Cl)c1-n1c(N)c(C(N)=O)c2nc(C3CC3)cnc21 [Compound 104] | < 10
CCCCc1cnc2c(n1)c(C(N)=O)c(N)n2-c1c(Cl)ccc(O)c1C [Compound 107] | 12
Cc1ccc(O)c(C)c1-n1c(N)c(C(N)=O)c2c(C)c(C)cnc21 [Compound 125] | 16
Cc1ccc(O)c(C)c1-n1c(N)c(C(N)=O)c2cc(C(C)(C)O)cnc21 [Compound 131] | < 10
Cc1ccc(O)c(C)c1-n1c(N)c(C(N)=O)c2cc(C(C)C)cnc21 [Compound 138] | < 10
Cc1ccc(O)c(C)c1-n1c(N)c(C(N)=O)c2cc(Br)cnc21 [Compound 141] | < 10
Cc1ccc(O)c(C)c1-n1cc(C(N)=O)c2cc(C3CC3)cnc21 [Compound 143] | < 10
Cc1ccc(O)cc1-n1c(N)c(C(N)=O)c2nccnc21 [Compound 146] | 1420
Cc1ccc(O)c(C)c1-n1c(N)c(C(N)=O)c2nccnc21 [Compound 147] | 55
Cc1ccc(O)cc1-n1c(N)c(C(N)=O)c2ncc(-c3ccccc3)nc21 [Compound 150, 6-amino-5-(5-hydroxy-2-methyl-phenyl)-3-phenyl-pyrrolo[2,3-b]pyrazine-7-carboxamide] | 1350
Cc1ccc(O)cc1-n1c(N)c(C(N)=O)c2ncc(OCc3ccccc3)nc21 [Compound 151] | 2750
Cc1ccc(O)cc1-n1c(N)c(C(N)=O)c2ncc(OCc3cccnc3)nc21 [Compound 153, 6-amino-5-(5-hydroxy-2-methyl-phenyl)-3-(3-pyridylmethoxy)pyrrolo[2,3-b]pyrazine-7-carboxamide] | 3550
Cc1ccc(O)cc1-n1c(N)c(C(N)=O)c2ncc(OCCN3CCOCC3)nc21 [Compound 154] | 6350
Cc1ccc(O)cc1-n1c(N)c(C(N)=O)c2ncc(-c3cn[nH]c3)nc21 [Compound 155] | 1020
Cc1ccc(O)cc1-n1c(N)c(C(N)=O)c2ncc(-c3cccc(C(N)=O)c3)nc21 [Compound 156] | 465
CC(=O)Nc1cccc(-c2cnc3c(C(N)=O)c(N)n(-c4cc(O)ccc4C)c3n2)c1 [Compound 157] | 1240
Cc1ccc(O)cc1-n1c(N)c(C(N)=O)c2ncc(C#Cc3ccccn3)nc21 [Compound 158] | 953
Cc1ccc(O)cc1-n1c(N)c(C(N)=O)c2ncc(CCc3ccccn3)nc21 [Compound 159] | 1720
Cc1ccc(O)cc1-n1c(N)c(C(N)=O)c2ncc(C#Cc3cccnc3)nc21 [Compound 160, 6-amino-5-(5-hydroxy-2-methyl-phenyl)-3-[2-(3-pyridyl)ethynyl]pyrrolo[2,3-b]pyrazine-7-carboxamide] | 554
Cc1ccc(O)cc1-n1c(N)c(C(N)=O)c2ncc(CCCN3CCOCC3)nc21 [Compound 161] | 671
Cc1ccc(O)cc1-n1c(N)c(C(N)=O)c2ncc(CCc3cccnc3)nc21 [Compound 162, 6-amino-5-(5-hydroxy-2-methyl-phenyl)-3-[2-(3-pyridyl)ethyl]pyrrolo[2,3-b]pyrazine-7-carboxamide] | 596
Cc1ccc(O)cc1-n1c(N)c(C(N)=O)c2ncc(C#CCN3CCOCC3)nc21 [Compound 163] | 334
Cc1cnc2c(C(N)=O)c(N)n(-c3cc(O)ccc3C)c2n1 [Compound 167] | 361
Cc1nc2c(C(N)=O)c(N)n(-c3c(Cl)ccc(O)c3C)c2nc1C [Compound 168] | < 10
Cc1ccc(O)c(C)c1-n1c(N)c(C(N)=O)c2nc(C3CCC3)cnc21 [Compound 173, 6-amino-2-cyclobutyl-5-(3-hydroxy-2,6-dimethyl-phenyl)pyrrolo[2,3-b]pyrazine-7-carboxamide] | < 10
Cc1ccc(O)c(C)c1-n1c(N)c(C(N)=O)c2nc(C(C)(C)F)cnc21 [Compound 178, 6-amino-2-(1-fluoro-1-methyl-ethyl)-5-(3-hydroxy-2,6-dimethyl-phenyl)pyrrolo[2,3-b]pyrazine-7-carboxamide] | < 10
Cc1ccc(O)c(C)c1-n1c(N)c(C(N)=O)c2cc(Br)c(C)nc21 [Compound 187] | < 10

Structure (SMILES) | IC50 [nM]
Cc1ccc2c(C(N)=O)c(N)n(-c3c(C)ccc(O)c3C)c2n1 [Compound 193] | < 10
Cc1ccc(O)c(C)c1-n1c(N)c(C(N)=O)c2nc(C3(C(F)(F)F)CC3)cnc21 [Compound 198, 6-amino-5-(3-hydroxy-2,6-dimethyl-phenyl)-2-[1-(trifluoromethyl)cyclopropyl]pyrrolo[2,3-b]pyrazine-7-carboxamide] | < 10
C=C(C)c1cnc2c(n1)c(C(N)=O)c(N)n2-c1c(C)ccc(O)c1C [Compound 202] | < 10
Cc1ccc(O)c(C)c1-n1cc(C(N)=O)c2nc(C)c(C)nc21 [Compound 209, 5-(3-hydroxy-2,6-dimethyl-phenyl)-2,3-dimethyl-pyrrolo[2,3-b]pyrazine-7-carboxamide] | 28
Cc1ccc(O)cc1-n1c(N)c(C(N)=O)c2ncc(C(F)(F)F)cc21 [Compound 212, 2-amino-1-(5-hydroxy-2-methyl-phenyl)-6-(trifluoromethyl)pyrrolo[3,2-b]pyridine-3-carboxamide] | 3440
Cc1ccc(O)cc1-n1c(N)c(C(N)=O)c2nc(C(F)(F)F)ccc21 [Compound 213] | 195
Cc1ccc(O)c(C)c1-n1c(N)c(C(N)=O)c2nc(-c3nccs3)c(C#CC3CC3)nc21 [Compound 214, 6-amino-3-(2-cyclopropylethynyl)-5-(3-hydroxy-2,6-dimethyl-phenyl)-2-thiazol-2-yl-pyrrolo[2,3-b]pyrazine-7-carboxamide] | 136
Cc1ccc(O)c(C)c1-n1c(N)c(C(N)=O)c2nc(C#CCN3CCOCC3)c(C#CCN3CCOCC3)nc21 [Compound 215] | 24
Cc1ccc(O)c(C)c1-n1c(N)c(C(N)=O)c2nc(-c3nccs3)c(C#CCN3CCOCC3)nc21 [Compound 216] | 76
Cc1ccc(O)c(C)c1-n1c(N)c(C(N)=O)c2nc(C#CCN3CCOCC3)cnc21 [Compound 217] | 168
Cc1ccc(O)c(C)c1-n1c(N)c(C(N)=O)c2ncc(C#CCN3CCOCC3)nc21 [Compound 218] | 22
Cc1ccc(O)c(C)c1-n1c(N)c(C(N)=O)c2nc(C#N)cnc21 [Compound 219, 6-amino-2-cyano-5-(3-hydroxy-2,6-dimethyl-phenyl)pyrrolo[2,3-b]pyrazine-7-carboxamide] | 46
Cc1ccc(O)c(C)c1-n1c(N)c(C(N)=O)c2nc(C(N)=O)cnc21 [Compound 220, 6-amino-5-(3-hydroxy-2,6-dimethyl-phenyl)pyrrolo[2,3-b]pyrazine-2,7-dicarboxamide] | < 10
Cc1ccc(O)c(C)c1-n1c(N)c(C(N)=O)c2cc(C(F)(F)F)cnc21 [Compound 221, 2-amino-1-(3-hydroxy-2,6-dimethyl-phenyl)-5-(trifluoromethyl)pyrrolo[2,3-b]pyridine-3-carboxamide] | 81
Cc1ccc(O)c(C)c1-n1c(N)c(C(N)=O)c2ncc(C#CCC3CCOCC3)nc21 [Compound 222] | < 10
Cc1ccc(O)c(C)c1-n1c(N)c(C(N)=O)c2ncc(C#CC(C)(C)NS(C)(=O)=O)nc21 [Compound 223] | 15
Cc1ccc(O)c(C)c1-n1c(N)c(C(N)=O)c2ncc(C#CC3CCCCO3)nc21 (stereo not shown) [Compound 224] | 13
Cc1ccc(O)c(C)c1-n1c(N)c(C(N)=O)c2ncc(C#CC3CCOCC3)nc21 [Compound 225] | 34
Cc1ccc(O)c(C)c1-n1c(N)c(C(N)=O)c2ncc(C#CCN(C)C)nc21 [Compound 226] | 12
Cc1ccc(O)c(C)c1-n1c(N)c(C(N)=O)c2ncc(C#Cc3ccccn3)nc21 [Compound 227] | 50
Cc1ccc(O)c(C)c1-n1c(N)c(C(N)=O)c2ncc(C#CC3CC3)nc21 [Compound 228] | 21
Cc1ccc(O)c(C)c1-n1c(N)c(C(N)=O)c2ncc(C#C[C@H](C)O)nc21 [Compound 229] | 52
Cc1ccc(O)c(C)c1-n1c(N)c(C(N)=O)c2ncc(C#Cc3ccccc3)nc21 [Compound 230] | 368
Cc1ccc(O)c(C)c1-n1c(N)c(C(N)=O)c2ncc(C#CC3(O)CCOCC3)nc21 [Compound 231] | < 10
Cc1ccc(O)c(C)c1-n1c(N)c(C(N)=O)c2ncc(C#CC3(C)COC3)nc21 [Compound 232] | 11
Cc1ccc(O)c(C)c1-n1c(N)c(C(N)=O)c2ncc(C#C[C@@H]3OCC[C@@H]3Cl)nc21 [Compound 233] | 10
Cc1ccc(O)c(C)c1-n1c(N)c(C(N)=O)c2ncc(C#C[C@@H]3COC[C@H]3O)nc21 [Compound 234] | 14
